Here are results for six compounds from PMC10487843, “Evaluation of Anticancer and Anti-Inflammatory Activities of Some Synthetic Rearranged Abietanes” (International Journal of Molecular Sciences, 2023).

≈ marks a conversion by molar mass, not a printed value. Where two headings read alike, the source gives them in different places.

Data set [1] deals with human hepatocarcinoma (HepG2). The data set is described as follows: MTT cell viability assay, HepG2. Type of data set: cell-based. To be noted: Homo sapiens; for IC80: 72 h, 80% growth inhibition; for IC50: HepG2, 72 h, read-out: IC50. An excerpt:
(§1) In this study, we employed the MTT (3-(4,5-dimethyl thiazol-2-yl)-2,5-diphenyltetrazolium bromide) colorimetric assay to evaluate the cytotoxic activity of selected abietanes (compounds 5, 7, 13, 17, and 19) against three tumor cell lines: human colon adenocarcinoma (HT29), human hepatocarcinoma (HepG2), and murine melanoma (B16–F10). The MTT assay relied on the conversion of MTT to formazan by viable cells, with the formazan concentration proportional to the number of viable cells. The concentrations required for 50 and 80% growth inhibition (IC50 and IC80) were determined for each compound.
(§2) The human colorectal adenocarcinoma cell line HT29 (ECACC no. 9172201; ATCC no. HTB-38), the human hepatocarcinoma cell line HepG2 (ECACC no. 85011430), the mouse melanoma cells B16–F10 (ATCC no. CRL-6475), and the murine monocyte/macrophage like RAW 264.7 cell line (ATCC no, TIB-71) were obtained from the cell bank of the University of Granada, Spain. The tumor cell lines were cultured in DMEM (Dulbecco’s modified Eagle’s medium) supplemented with 2 mM glutamine, 10% heat-inactivated FCS (fetal calf serum), and 50 μg/mL of gentamicin (for all cancer cell lines). The RAW 264.7 cell line was cultured in RPMI1640 medium, supplemented with 2 mM glutamine, 10% heat-inactivated FCS, and 50 μg/mL of gentamicin. All cell lines were incubated at 37 °C, in an atmosphere of 5% CO2 and 95% humidity. The culture media were changed every 48 h, and the confluent cultures were separated with a trypsin solution (0.25% EDTA). In all experiments, monolayer cells were grown to 80–90% confluence in sterile cell culture flasks.
(§3) The effects of the compounds on the cell viability were established using the MTT method (Sigma, St. Louis, MO, USA). The cytotoxicity of the compounds was assessed by measuring the absorbance of MTT dye staining of metabolically competent cells. The cells were cultivated in 96-well plates at 6.0 × 10^3 cells/mL for the HT29 and RAW 264.7 cell lines, at 5.0 × 10^3 cells/mL for B16–F10 cells, and 15.0 × 10^3 cells/mL for the HepG2 cell line, with a final volume of 200 μL per well being incubated with the different products (0–100 μg/mL). After 72 h, 100 μL of MTT solution (0.5 mg/mL) in 50% of PBS and 50% of the medium was added to each well. Following incubation for 1.5 h, formazan was resuspended in 100 μL of DMSO, and each concentration was tested in triplicate. The cell viability relative to the untreated control cells was determined by measuring the absorbance at 570 nm using an ELISA plate reader (Tecan Sunrise MR20–301, TECAN, Grödig, Austria).
For orientation: Tetrazolium dyes change colour on reduction, which living cells bring about.

In data set [2] the test system is P388 leukemia cells. Further details: method as in doi:10.1076/phbi.37.2.148.6082. The conditions noted are these: cited from earlier work.
The nature of data set [3]: RAW 264.7 cell viability (MTT). Type of data set: cell-based, murine. To be noted: mouse. On the procedure:
To evaluate the cytotoxic effects of the synthesized abietanes (5, 7, 13, 17, and 19) on RAW 264.7 monocyte/macrophage murine cells and to establish sub-cytotoxic concentrations for anti-inflammatory testing, we conducted cell viability assays using the MTT method. Each compound was tested at increasing concentration levels (0–100 μg/mL), and the IC50 values were determined by interpolation in the sigmoidal cytotoxicity curves (Figure 8). […] Additionally, sub-cytotoxic concentrations corresponding to ¾ IC50, ½ IC50, and ¼ IC50 were determined and selected for subsequent anti-inflammatory assays, ensuring that the observed effects were specifically attributed to the anti-inflammatory properties of the compounds rather than cytotoxicity. The human colorectal adenocarcinoma cell line HT29 (ECACC no. 9172201; ATCC no. HTB-38), the human hepatocarcinoma cell line HepG2 (ECACC no. 85011430), the mouse melanoma cells B16–F10 (ATCC no. CRL-6475), and the murine monocyte/macrophage like RAW 264.7 cell line (ATCC no, TIB-71) were obtained from the cell bank of the University of Granada, Spain. The tumor cell lines were cultured in DMEM (Dulbecco’s modified Eagle’s medium) supplemented with 2 mM glutamine, 10% heat-inactivated FCS (fetal calf serum), and 50 μg/mL of gentamicin (for all cancer cell lines). The RAW 264.7 cell line was cultured in RPMI1640 medium, supplemented with 2 mM glutamine, 10% heat-inactivated FCS, and 50 μg/mL of gentamicin. All cell lines were incubated at 37 °C, in an atmosphere of 5% CO2 and 95% humidity. The culture media were changed every 48 h, and the confluent cultures were separated with a trypsin solution (0.25% EDTA). In all experiments, monolayer cells were grown to 80–90% confluence in sterile cell culture flasks. The effects of the compounds on the cell viability were established using the MTT method (Sigma, St. Louis, MO, USA). The cytotoxicity of the compounds was assessed by measuring the absorbance of MTT dye staining of metabolically competent cells. The cells were cultivated in 96-well plates at 6.0 × 10^3 cells/mL for the HT29 and RAW 264.7 cell lines, at 5.0 × 10^3 cells/mL for B16–F10 cells, and 15.0 × 10^3 cells/mL for the HepG2 cell line, with a final volume of 200 μL per well being incubated with the different products (0–100 μg/mL). After 72 h, 100 μL of MTT solution (0.5 mg/mL) in 50% of PBS and 50% of the medium was added to each well. Following incubation for 1.5 h, formazan was resuspended in 100 μL of DMSO, and each concentration was tested in triplicate. The cell viability relative to the untreated control cells was determined by measuring the absorbance at 570 nm using an ELISA plate reader (Tecan Sunrise MR20–301, TECAN, Grödig, Austria).

Data set [4] concerns human colon adenocarcinoma (HT29). Put plainly: MTT cell viability assay, HT29. Type of data set: cell-based. To be noted: Homo sapiens, HT-29, 72 h; for IC80: 80% growth inhibition; for IC50: read-out: IC50.
Text: as §1, §2, §3

The test system of data set [5] is NO release in LPS-stimulated RAW 264.7 macrophage cells. The data set is described as follows: Inhibition of nitric oxide production (Griess nitrite assay) in LPS-activated RAW 264.7 macrophages. Type of data set: cell-based, murine. To be noted: LPS-stimulated RAW 264.7, 48 h; for NO inhibition: ¾ IC50 concentration; for IC50: Mus musculus, RAW264.7. On the procedure:
To evaluate the anti-inflammatory activity of the rearranged abietanes (5, 7, 17, and 19) along with their precursor 13, we conducted experiments on RAW 264.7 macrophage cells, a well-known model for screening anti-inflammatory compounds. The macrophages were stimulated with LPS to induce the maximum release of nitric oxide (NO) during the inflammatory response. Subsequently, the different compounds were incubated with the cells at sub-cytotoxic concentrations for 48 h (Figure 9). Next, we determined the concentration of nitrites in the culture medium, which was proportional to the amount of NO release.
Nitrite production was analyzed using the Griess reaction method. The concentration of nitrite was used as an indication of nitric oxide (NO) production. RAW 264.7 cells were seeded at 6 × 10^4 cells/well in 24-well cell culture plates, supplemented with 10 μg/mL of lipopolysaccharide (LPS). […] The Griess reaction was conducted by mixing 150 μL of supernatant test samples or sodium nitrite standard (0–120 μM) with 25 μL of Griess reagent A (0.1% n-(1-naphthyl) ethylenediamine dihydrochloride) and 25 μL of Griess reagent B (1% sulfanilamide in 5% of phosphoric acid) in a 96-well plate. The mixture was incubated at room temperature for 15 min, after which the absorbance was measured at 540 nm using an ELISA plate reader (Tecan Sunrise MR20–301, TECAN, Grödig, Austria). To determine the concentration of nitrite in each sample supernatant, the absorbance was referenced to the nitrite standard curve. To determine the percentage of NO production, the increase between the negative control (untreated cells) and the positive control (cells only with 10 μg/mL of LPS) was assigned 100%.
On the technique in general: Griess reagent forms a coloured azo dye with nitrite.

The test system of data set [6] is murine melanoma (B16–F10). The data set is described as follows: MTT cell viability assay, B16-F10. The conditions noted are these: Mus musculus, 72 h; for IC80: 80% growth inhibition. Type of data set: cell-based.
Text: as §1, §2, §3

The subject of data set [7] is promyelocytic HL-60 cells. Further details: method as in PMID 16989306. The conditions noted are these: cited from earlier work.
For data set [8], the system named is human leukemia lymphoblastic NALM-6. Further details: method as in PMID 16989306. The conditions noted are these: cited from earlier work.
Data set [9] relates to human carcinoma KB cells. Further details: method as in doi:10.1076/phbi.37.1.17.6321. To be noted: cited from earlier work.
On the set-up of data set [10]: method as in PMID 29772301. The conditions noted are these: orthoquinones versus para-quinones; cell lines not given; read-out: cytotoxic activity; cited from earlier work.
The mark [11] stands for this setting: RAW 264.7 monocyte/macrophage cells, RAW 264.7, MTT, 0–100 μg/mL, read-out: IC50 (cytotoxicity).

Usually IC80 stands for the concentration needed for an effect of 80%. The low end stands for an effect from little substance, the high end for a need for much substance.

On to `CC(C)=CCCc1c(C)ccc2c1C(=O)C(=O)C(C(C)C)=C2` [Compound 7, saprorthoquinone], for which the IC80 in data set [1] was 29.12 ± 0.21 µg/mL (≈ 98.2 µM); in [4], 10.6 ± 0.28 µg/mL (≈ 35.8 µM); in data set [6], 8.02 ± 0.52 µg/mL (≈ 27.1 µM). In addition, the IC50 turned out to be 21.2 ± 2.26 µg/mL (≈ 71.4 µM) in [1], 7.82 ± 0.17 µg/mL (≈ 26.4 µM) in data set [4], 1.3 ± 0.08 µg/mL (≈ 4.39 µM) in [5] and 6.89 ± 0.37 µg/mL (≈ 23.2 µM) in data set [6]. In data set [2], the cytotoxicity result was “strong cytotoxicity”. Moreover, the IC50 at 72 h in data set [3] (setting [11]) was determined as 2.81 ± 0.45 µg/mL (≈ 9.48 µM). For the same compound, the NO inhibition in data set [5] is 100%.

Take `CC(C)c1cc2c(c(O)c1O)C1=CC(=O)CC(C)(C)[C@@]1(C)C=C2` [Compound 17, pygmaeocin C]: the results for the IC80 in [1], in [4] and in data set [6] were 73.5 ± 2.06 µg/mL (≈ 235 µM), 24.4 ± 2.65 µg/mL (≈ 78 µM) and 26.6 ± 4.82 µg/mL (≈ 85.2 µM), respectively. The IC50 in data set [1] was 38.8 ± 1.55 µg/mL (≈ 124 µM); in data set [4] it was 15.3 ± 0.71 µg/mL (≈ 48.9 µM); in [5], 1.73 ± 0.04 µg/mL (≈ 5.54 µM); in data set [6] it was 10.1 ± 1.81 µg/mL (≈ 32.4 µM). Also, the IC50 at 72 h in [3] was 6.27 ± 0.94 µg/mL (≈ 20.1 µM). This compound displayed an NO inhibition in data set [5] of 91%.

As for `CC(C)C1=CC2=C(C(=O)C1=O)C1=CCCC(C)(C)[C@@]1(C)C=C2` [Compound 19, viridoquinone], the IC80 in data set [1] was 101 ± 3.47 µg/mL (≈ 339 µM); in [4] it was 74.7 ± 1.53 µg/mL (≈ 252 µM); in data set [6], 9.14 ± 0.38 µg/mL (≈ 30.8 µM). In addition, the IC50 in data set [1] was found to be 76.3 ± 2.14 µg/mL (≈ 257 µM); in data set [4], 60.52 ± 0.28 µg/mL (≈ 204 µM); in data set [5], 7.21 ± 0.9 µg/mL (≈ 24.3 µM); in data set [6], 6.42 ± 0.35 µg/mL (≈ 21.7 µM). The IC50 at 72 h in [3] (setting [11]) stood at 9.29 ± 0.35 µg/mL (≈ 31.3 µM). The compound also registered an NO inhibition in data set [5] of 100%.

As for `C=C(C)CCCc1c(C)ccc2c1C(=O)C(=O)C(C(C)C)=C2` [aethiopinone], the IC50 in [7] was 4.8 µg/mL (≈ 16.2 µM); in data set [8], 0.6 µg/mL (≈ 2.02 µM). Also, the cytotoxic effect result in data set [9] is listed as “potent cytotoxic effect”.

With aegyptinone A, in [10], the IC50 is 2.11 to 8.19 µM.

As for tebesinone B, the IC50 in [10] is 5.47 to 10.3 µM.
